# Test results reported in US11684614B2, “Formulations of hydroxypyridonate actinide/lanthanide decorporation agents” (priority 2017, dated 2023).
# Values joined by “and” are separate entries in the source; they are usually repeats but may differ in a detail not shown here. Identical values can stand only once.
# Assay: Repeated-treatment efficacy for removing an intravenous dose of 238Pu (excretion, tissue retention, clinical observations), female and male arms
# Type: in vivo, Swiss-Webster mice
# Settings: for % Recovered Dose-Female Animals-Urine per Day-Day 11 Necropsy: animal group H
# Procedure: The objective of this study was to characterize the efficacy of 3,4,3-L1(1,2-HOPO) at enhancing elimination from an internal plutonium burden in female and male Swiss-Webster mice administered a soluble citrate complex of ^238Pu and treated multiple times, starting at 24 hours after the exposure. Efficacy was evaluated by comparing the tissue contents, urinary and fecal excretions of ^238Pu in treated animals versus untreated animals.
# The medical countermeasure 3,4,3-L1(1,2-HOPO) was administered parenterally (ip) or orally (po) via consecutive injections or gavages (six daily or twelve twice daily) starting at 24 hours post contamination at the following four selected doses: 30 μmol/kg ip, 150 μmol/kg po, 300 μmol/kg po, and 600 μmol/kg po (equivalent to respective approximate human doses range of […], using the accepted conversion system of mouse doses into human equivalent doses—HED—based on body surface area). Oral doses also included the permeability enhancer selected during formulation development work.
# • Challenge isotope: ^238Pu • Challenge dose: 25 nCi (i.e., approximately 0.8 μCi/kg) • Route of contamination: Intravenous (iv) tail-vein • Route of treatment: Intraperitoneal Injection (ip) or Oral (po) • Frequency of treatment: Multiple (once- or twice-daily for 6 days) doses, starting 24 hr postcontamination • Treatment dose calculation: Dose calculations (mg/kg or μmol/kg) for the decorporation agent were based on the individual body weight measured after contamination. • Study Duration: 11 days, in-life
# c. […] Test article and control dose formulations were prepared within 1 day of dose administration, by weighing out the appropriate amount of test article, dispersing in vehicle. For ip solutions, the test article was used alone, while for oral suspensions, a mixture of test article and excipient (90:10, w:w) was used. The pH was adjusted to 7.0-7.4 for ip administration and 5.0-5.5 for oral administration with sterile NaOH. Dose formulations were prepared at room temperature and filter-sterilized. • Storage: 2-8° C.; refrigerated; protected from light. • Characterization: The concentration of each test article formulation was verified by high-performance liquid chromatography-mass spectrometry. • Test Article Handling: Test, reference, and control article formulations were handled with the use of eye protection, gloves, and a protective laboratory coat. • Correct Dose Assurance: The test article was weighed with calibrated balances. The administration of each dose formulation was properly documented, and the amount administered to each animal recorded.
# e. Experimental Procedures (In-Life Evaluations and Euthanasia) • Contamination: Single administration by intravenous (iv) tail-vein injection (0.2 mL injection volume) under isoflurane anesthesia. Three standard 0.2 mL injections were performed into polyethylene bottles and pre-loaded with aliquots of concentrated nitric acid on each injection day. Six female and six male mice were culled for necropsy 1 hr post-contamination and were used as standards. A11 standards were processed and counted together with the final samples to allow verification of the contamination dose. • Dose Administration: Single administration by intraperitoneal injection (ip) or oral gavage (po) under isoflurane anesthesia. • Mortality/Morbidity: Assessed at least once daily. • Clinical Observations: Recorded once daily (4 hr post-dose on day of treatment), or more often as clinical signs warranted. […]
smiles,measurement,setting,value
"O=C(NCCCN(CCCCN(CCCNC(=O)c1cccc(=O)n1O)C(=O)c1cccc(=O)n1O)C(=O)c1cccc(=O)n1O)c1cccc(=O)n1O [3,4,3-L1(1,2-HOPO)]",% Recovered Dose-Female Animals-Feces per Day-Day 7 Necropsy,"animal group B, day 1, female mice",9.41%
same,% Recovered Dose-Female Animals-Feces per Day-Day 7 Necropsy,"animal group B, day 2, female mice",8.35%
same,% Recovered Dose-Female Animals-Feces per Day-Day 7 Necropsy,"animal group B, day 3, female mice",2.59%
same,% Recovered Dose-Female Animals-Feces per Day-Day 7 Necropsy,"animal group B, day 4, female mice",1.99%
same,% Recovered Dose-Female Animals-Feces per Day-Day 7 Necropsy,"animal group B, day 5, female mice",2.39%
same,% Recovered Dose-Female Animals-Feces per Day-Day 7 Necropsy,"animal group B, day 6, female mice",2.12%
same,% Recovered Dose-Female Animals-Feces per Day-Day 7 Necropsy,"animal group B, day 7, female mice",1.74%
same,% Recovered Dose-Female Animals-Feces per Day-Day 7 Necropsy,"animal group C, day 1, female mice, listed as 3,4,3-LI(1,2-HOPO)",11.51% and 5.30% and 8.74% and 7.20%
same,% Recovered Dose-Female Animals-Feces per Day-Day 7 Necropsy,"animal group C, day 2, female mice, listed as 3,4,3-LI(1,2-HOPO)",13.77% and 8.33% and 12.44% and 14.41%
same,% Recovered Dose-Female Animals-Feces per Day-Day 7 Necropsy,"animal group C, day 3, female mice, listed as 3,4,3-LI(1,2-HOPO)",4.51% and 3.49% and 4.66% and 4.88%
same,% Recovered Dose-Female Animals-Feces per Day-Day 7 Necropsy,"animal group C, day 4, female mice, listed as 3,4,3-LI(1,2-HOPO)",3.35% and 3.00% and 3.74% and 4.08%
same,% Recovered Dose-Female Animals-Feces per Day-Day 7 Necropsy,"animal group C, day 5, female mice, listed as 3,4,3-LI(1,2-HOPO)",2.71% and 2.82% and 2.30% and 2.85%
same,% Recovered Dose-Female Animals-Feces per Day-Day 7 Necropsy,"animal group C, day 6, female mice, listed as 3,4,3-LI(1,2-HOPO)",2.52% and 2.18% and 2.39% and 3.01%
same,% Recovered Dose-Female Animals-Feces per Day-Day 7 Necropsy,"animal group C, day 7, female mice, listed as 3,4,3-LI(1,2-HOPO)",2.15% and 1.62% and 1.98% and 2.66%
same,% Recovered Dose-Female Animals-Feces per Day-Day 7 Necropsy,"animal group E, day 1, female mice, listed as 3,4,3-LI(1,2-HOPO)",6.10% and 10.77% and 13.26% and 10.08%
same,% Recovered Dose-Female Animals-Feces per Day-Day 7 Necropsy,"animal group E, day 2, female mice, listed as 3,4,3-LI(1,2-HOPO)",8.15% and 10.30% and 9.61% and 15.30%
same,% Recovered Dose-Female Animals-Feces per Day-Day 7 Necropsy,"animal group E, day 3, female mice, listed as 3,4,3-LI(1,2-HOPO)",2.89% and 5.25% and 5.53% and 2.67%
same,% Recovered Dose-Female Animals-Feces per Day-Day 7 Necropsy,"animal group E, day 4, female mice, listed as 3,4,3-LI(1,2-HOPO)",2.76% and 3.97% and 4.52% and 2.90%
same,% Recovered Dose-Female Animals-Feces per Day-Day 7 Necropsy,"animal group E, day 5, female mice, listed as 3,4,3-LI(1,2-HOPO)",1.35% and 1.95% and 2.80% and 2.17%
same,% Recovered Dose-Female Animals-Feces per Day-Day 7 Necropsy,"animal group E, day 6, female mice, listed as 3,4,3-LI(1,2-HOPO)",1.90% and 1.34% and 2.01% and 2.18%
same,% Recovered Dose-Female Animals-Feces per Day-Day 7 Necropsy,"animal group E, day 7, female mice, listed as 3,4,3-LI(1,2-HOPO)",2.23% and 1.29% and 1.91% and 2.16%
same,% Recovered Dose-Female Animals-Feces per Day-Day 7 Necropsy,"animal group F, day 1, female mice, listed as 3,4,3-LI(1,2-HOPO)",9.32% and 9.52% and 7.17% and 5.19%
same,% Recovered Dose-Female Animals-Feces per Day-Day 7 Necropsy,"animal group F, day 2, female mice, listed as 3,4,3-LI(1,2-HOPO)",8.03% and 12.87% and 9.08% and 6.87%
same,% Recovered Dose-Female Animals-Feces per Day-Day 7 Necropsy,"animal group F, day 3, female mice, listed as 3,4,3-LI(1,2-HOPO)",2.78% and 4.30% and 4.68% and 2.63%
same,% Recovered Dose-Female Animals-Feces per Day-Day 7 Necropsy,"animal group F, day 4, female mice, listed as 3,4,3-LI(1,2-HOPO)",2.68% and 3.98% and 3.14% and 2.89%
same,% Recovered Dose-Female Animals-Feces per Day-Day 7 Necropsy,"animal group F, day 5, female mice, listed as 3,4,3-LI(1,2-HOPO)",2.30% and 3.01% and 3.85% and 3.00%
same,% Recovered Dose-Female Animals-Feces per Day-Day 7 Necropsy,"animal group F, day 6, female mice, listed as 3,4,3-LI(1,2-HOPO)",2.40% and 2.04% and 2.26% and 1.91%
same,% Recovered Dose-Female Animals-Feces per Day-Day 7 Necropsy,"animal group F, day 7, female mice, listed as 3,4,3-LI(1,2-HOPO)",1.39% and 1.59% and 2.15% and 2.13%
same,% Recovered Dose-Female Animals-Urine per Day-Day 11 Necropsy,"day 1, female mice, listed as 3,4,3-LI(1,2-HOPO)",9.33% and 10.42% and 5.66% and 9.35% and 11.13% and 9.41% and 6.93% and 9.39%
same,% Recovered Dose-Female Animals-Urine per Day-Day 11 Necropsy,"day 2, female mice, listed as 3,4,3-LI(1,2-HOPO)",3.78% and 5.22% and 5.30% and 4.96% and 5.23% and 5.12% and 3.93% and 5.10%
same,% Recovered Dose-Female Animals-Urine per Day-Day 11 Necropsy,"day 3, female mice, listed as 3,4,3-LI(1,2-HOPO)",4.12% and 4.15% and 6.39% and 5.55% and 5.41% and 4.29% and 3.92% and 3.16%
same,% Recovered Dose-Female Animals-Urine per Day-Day 11 Necropsy,"day 4, female mice, listed as 3,4,3-LI(1,2-HOPO)",2.95% and 3.74% and 4.22% and 3.34% and 3.22% and 4.38% and 2.99% and 5.19%
same,% Recovered Dose-Female Animals-Urine per Day-Day 11 Necropsy,"day 5, female mice, listed as 3,4,3-LI(1,2-HOPO)",3.24% and 2.72% and 3.06% and 2.44% and 3.11% and 2.27% and 1.41% and 2.10%
same,% Recovered Dose-Female Animals-Urine per Day-Day 11 Necropsy,"day 6, female mice, listed as 3,4,3-LI(1,2-HOPO)",1.23% and 2.05% and 2.60% and 1.54% and 1.89% and 1.51% and 0.91% and 1.79%
same,% Recovered Dose-Female Animals-Urine per Day-Day 11 Necropsy,"day 7, female mice, listed as 3,4,3-LI(1,2-HOPO)",1.33% and 1.66% and 2.35% and 1.27% and 1.38% and 1.35% and 1.24% and 1.89%
